# Results taken from PMC8400200, “Selective Moonlighting Cell-Penetrating Peptides” (Pharmaceutics, 2021).
# “Also recorded” adds a separate entry of the source.
# What was measured:
# yeast or mammalian cells = conditions: cited from earlier work
# From the text: Additionally, three other peptides were designed to test the activation strategy (see Table 1). […] For this strategy we chose the peptidase neprilysin (also known as CD10), known to be overexpressed in some types of cancer tissues. The cleavage site sequence recognized by this protease has been well characte ...
# [1] = test system: HEK293T, HEK293T-NEP and HeLa cells; experiment: Internalization analysis by confocal microscopy in mammalian cells; format: cell-based; conditions: 5 μM, 30 min, CellMask Green membrane stain
# Protocol: (§1) This procedure was adapted from a previously reported protocol. Cells were incubated with TatNep, TatNepNoCPP or D-TatNepNoCPP peptides at a concentration of 10, 5 and 1 μM (see Table 1). All peptides were dissolved in a 1:4 DMSO-Water solution. Cells were incubated with each peptide for 30 min, then washed with PBS three times and fixed with 4% paraformaldehyde (Merck, Naucalpan de Juárez Edo. de Mexico, Mexico) for 30 min at room temperature. Afterwards, samples were washed with PBS three times and then incubated with 1 μg/mL of DAPI for 2 min at room temperature. For the images, 1000 cells were taken (3 replicates) by using the epifluorescent microscopy (Nikon ECLIPSE Ti-U). Due to a slight precipitation of the peptides, to avoid interference with the quantification, the 10% with the highest fluorescence intensity were considered outliers and were removed for all conditions. A total of 2700 cells remained for further analysis. Internalization analysis was performed by confocal microscopy. Cells were incubated with any of the three peptides at a concentration of 5 μM for 30 min (the fluorescence was strong and the precipitation reduced), then cell membranes were stained with the CellMask^TM Green Plasma Membrane Stain (ThermoFisher, Waltham, MA, USA) following specifications of the provider. Images were acquired with a Zeiss LSM800 microscope using the ZEN 2.6 (blue edition) software. All images were analyzed with the Fiji/ImageJ Software and are available at http://bis.ifc.unam.mx/ironbios/selmoonCPP/ (accessed on 21 July 2021).
# [2] = test system: HEK293T, HEK293T-NEP and HeLa cells; experiment: Internalization assay, epifluorescence microscopy, compared or averaged over the three cell lines; format: cell-based; conditions: for internalization compared between cell lines: medians of box plots (Figure 6A); for internalization compared between peptides: medians of box plots (Figure 6A, 6B)
# Protocol: as §1
# For the mammalian cells images obtained from epifluorescence microscopy, a normality Shapiro–Wilk test was done for each individual condition (27 conditions).
# HEK293T-NEP cells = experiment: Internalization assay, epifluorescence microscopy; format: cell-based; conditions: 10 μM, 30 min, fixed cells, 2700 cells (3 replicates)
# Protocol: HEK293T cells were transfected as previously described with the plasmid PCSC-SP-PW-Nep (Addgene, Watertown, MA, USA), which contains the human neprilysin (MME) gene. This transfection was done with the use of the reagent polyethylenimine (PEI) according to the stable transfection procedures for adherent cells. The transfected HEK293T cells were cultured with DMEM containing 10% FBS and Zeocin 400 µg/mL (ThermoFisher, Waltham, MA, USA) to select stably transfected cells, which were recovered after the third day of transfection. […]
# This procedure was adapted from a previously reported protocol. […] Due to a slight precipitation of the peptides, to avoid interference with the quantification, the 10% with the highest fluorescence intensity were considered outliers and were removed for all conditions. […] Cells were incubated with any of the three peptides at a concentration of 5 μM for 30 min (the fluorescence was strong and the precipitation reduced), then cell membranes were stained with the CellMask^TM Green Plasma Membrane Stain (ThermoFisher, Waltham, MA, USA) following specifications of the provider. […] All images were analyzed with the Fiji/ImageJ Software and are available at http://bis.ifc.unam.mx/ironbios/selmoonCPP/ (accessed on 21 July 2021). […]
# HEK293T cells = experiment: Internalization assay, epifluorescence microscopy; format: cell-based; conditions: 10 μM, 30 min, fixed cells, 2700 cells (3 replicates)
# Protocol: as §1, with “Internalization analysis was performed by confocal microscopy.” left out, “Images were acquired with a Zeiss LSM800 microscope using the ZEN 2.6 (blue edition) software.” left out, “2021). […]” for “2021).”
# [3] = test system: S. cerevisiae MATa and MATα cells; experiment: Internalization in yeast cells followed by confocal microscopy; format: cell-based, Saccharomyces cerevisiae; conditions: 50 μM peptide, OD600 0.4, cells in 0.5% agarose, pictures every 3 min for 1 h, two sets of experiments
# Protocol: To confirm that the fluorescence detected using the AMNIS multiphotonic microscope was the fluorescence inside cells, we carried out confocal microscopy experiments (Zeiss LSM510 META) by adapting a previous report. For that end, yeast cells for each yeast haplotype were grown overnight for 14 h in YPD (1% yeast extract (USB Corp., Cleveland, OH, USA), 2% bacto peptone (Becton, Dickinson and Company, Franklin Lakes, NJ, USA) and 2% glucose (Merck, Naucalpan de Juárez Edo. De Mexico, Mexico). Cells were then centrifuged and resuspended in YPD. An OD600 of 0.4 was used for the confocal microscopy experiments, whereas for the cytometry experiments (above) a value of 1.0 was chosen. Yeast cells were immobilized using low melting point agarose (Agarose SFR VWR Life Technologies, Radnor PA, USA) at 0.5%. The peptide concentration used for these experiments was 50 μM. Prior to performing any observations, 3 cycles of sonications (sonicator Bransonic 32) for 3 min each were performed to dissolve potential peptide aggregates. A total of 12.5 μL of yeast inoculum, 1.5 μL of TAMRA-α-NLS-C solution and 1 μL of previously heated agarose were placed on a microscope slide. […] Images were analyzed using Fiji software and the fluorescence intensity recorded for each cell was divided by the area of the corresponding cell.
# [4] = test system: S. cerevisiae MATa and MATα cells; experiment: Internalization in yeast cells exposed separately, imaging flow cytometry; format: cell-based, Saccharomyces cerevisiae; conditions: for penetrating efficiency in MATa cells compared among the targeted CPPs: MATa exposed separately or mixed with MATα cells
# Protocol: We adapted a previous protocol reported to analyze fluorescent single yeast cells. Briefly, cells were grown overnight and diluted to a final optical density measured at 600 nm of 1.0. A total of 116 μL of this cell dilution was mixed with 4 μL of a solution of penetrating peptide at 200 mM in a 1.5 mL plastic tube. This mixture was analyzed every 5 min for 60 min in a flux cytometer coupled to a multiphotonic microscope (Amnis ImageStream Mark II). In that equipment, 10,000 pictures were taken to record green (excitation 488 nm and emission 509 nm) and red (excitation 561 nm and emission 669 nm) fluorescence and the bright field. These images were then analyzed with the IDEAS software that is part of the Amnis equipment, to identify peptide internalization (red fluorescence). Two types of experiments were conducted; in one set, we exposed MATa and MATα cells separately to peptides α-NLS-C, NLS-α-CE and chimera (see Table 1 for a description of the peptide sequences). In another set of experiments, we exposed MATa and MATα cells mixed together to different penetrating peptides labeled with TAMRA; for this last experiment, the ribosomal protein RPL9A was fused to GFP in MATa cells, to facilitate their distinction from MATα cells. Events recorded in this way were further analyzed to discard cell debris and images that included clumps of cells. Images with a total area of 20–50 μm and an aspect ratio of 0.7 allowed us to identify events that include 1 or 2 cells; furthermore, images with less than 1500 arbitrary units of fluorescence were discarded. The data were plotted using ggplot2 from the R package. Please note that the reported experimental conditions were selected among several trials on the AMNIs equipment to identify the best conditions for these experiments.
# MATa cells = conditions: cited from earlier work
# From the text: In the targeted strategy, we noticed differences in penetrating efficiencies among the three targeted CPPs. […] This is observed when MATa are exposed to these peptides separately or mixed with MATα cells. […] However, if NLS-α-CE and chimera peptides would be disrupting the membrane potential of MATa cells as part of their toxic ...
# [5] = epifluorescence, 10, 5 and 1 μM, 30 min
substance,measurement,setting,value
5(6)-carboxytetramethyl rhodamine [TAMRA],internalization of the free fluorophore,yeast or mammalian cells,do not internalize
YGRKKRRQRRRFFGFLADDDDEE [TatNepNoCPP],pattern of fluorescence,[1],diffused layer covering the cells
same,"internalization, times higher than TatNep","[2]; average of the ratios of medians per cell line, 10 μM",3 times
same,internalization compared between cell lines,[2]; [5],HeLa > HEK293T > HEK293T-NEP
same,internalization compared between peptides,[2]; [5],best internalization with respect to the other peptides for any cell line; also recorded: TatNepNoCPP > TatNep > D-TatNepNoCPP
same,"ratio between medians of normalized fluorescence intensity, column peptide against row peptide TatNep",HEK293T-NEP cells,2.4
"D-(YGRKKRRQRRRFFGFLADDDDEE) [D-TatNepNoCPP, all-D isomer of TatNepNoCPP, negative control, N-terminal TAMRA]",internalization by orthogonal projection,[1],less internalization compared with the other two peptides in all three cell lines
same,pattern of fluorescence,[1],diffused layer covering the cells
same,concentration dependence of internalization,[2]; [5],does not present a concentration dependent internalization
same,internalization compared between peptides,[2]; [5],less internalized in all cell lines; also recorded: TatNepNoCPP > TatNep > D-TatNepNoCPP
"YGRKKRRQRRRFFG [TatNep, peptide produced by digestion of TatNepNoCPP by neprilysin, positive control for internalization, N-terminal TAMRA]",pattern of fluorescence,[1],punctuated fluorescence
same,internalization compared between cell lines,[2]; [5],internalized in HEK293T and the over-expressing HEK293T-NEP cells with the same efficiency; also recorded: HeLa cells internalized more of this peptide at 10 μM than the other cell lines
same,internalization compared between peptides,[2]; [5],TatNepNoCPP > TatNep > D-TatNepNoCPP
same,"ratio between medians of normalized fluorescence intensity, column peptide against row peptide D-TatNepNoCPP",HEK293T cells,2.8
same,"ratio between medians of normalized fluorescence intensity, column peptide against row peptide TatNepNoCPP",HEK293T cells,2.4
RLWHWLQLKPGQPMYWRQPKSKRKVRR [α-NLS-C],"TAMRA fluorescence inside cells, MATa vs MATα",[3],cells expressing the α-pheromone receptor STE2 (MATa cells) internalized more fluorescence than cells that did not express the receptor
same,"selectivity of internalization (fluorescence intensity inside cells), MATa vs MATα","[4]; living cells exposed separately, OD600 1.0, TAMRA-labelled peptide (4 μL of 200 mM solution in 120 μL), read every 5 min for 60 min, Amnis ImageStream, 10,000 cells per condition, repeated at least 3 times",more selectivity towards MATα cells than NLS-α-CE and chimera peptides
FRKWRRKPKKKRKVWWRKVKRRWHWLQLKPGQPMY [NLS-α-CE],toxicity to MATa cells,MATa cells,toxic to MATa cells
same,penetrating efficiency in MATa cells compared among the targeted CPPs,[4],penetrate less efficiently MATa cells expressing the targeted surface protein (Ste2p) than the α-NLS-C peptide
KRRWRFVWMNPKKKRKVPPWPYLLWWHWLQLKPGQPMY [Chimera],toxicity to MATa cells,MATa cells,toxic to MATa cells
same,penetrating efficiency in MATa cells compared among the targeted CPPs,[4],penetrate less efficiently MATa cells expressing the targeted surface protein (Ste2p) than the α-NLS-C peptide
